Source: patent publication US9302999B2, “Substituted triazoles as herbicides” (E. I. DU PONT DE NEMOURS AND COMPANY, priority 2012, dated 2016)

Experiments:
[1] = tested on: barnyardgrass (Echinochloa crus-galli); assay: Test C pre-/postemergence: barnyardgrass; assay type: in vivo; details: Preemergence, 250 g ai/ha; scale 0 to 100, 0 no effect, 100 complete control
Description: (§1) Seeds of plant species selected from blackgrass (Alopecurus myosuroides), bromegrass, downy (downy bromegrass, Bromus tectorum), foxtail, green (green foxtail, Setaria viridis), ryegrass, Italian (Italian ryegrass, Lolium multiflorum), winter wheat (Triticum aestivum), wild oat (Avena fatua), galium (catchweed bedstraw, Galium aparine), bermudagrass (Cynodon dactylon), surinam grass (Brachiaria decumbens), cocklebur (common cocklebur, Xanthium strumarium), corn (Zea mays), large crabgrass (Digitaria sanguinalis), woolly cupgrass (Eriochloa villosa), foxtail, giant (giant foxtail, Setaria faberii), goosegrass (Eleusine indica), johnsongrass (Sorghum halepense), kochia (Kochia scoparia), lambsquarters (Chenopodium album), morningglory (Ipomoea coccinea), nightshade (eastern black nightshade, Solanum ptycanthum), nutsedge, yellow (yellow nutsedge, Cyperus esculentus), pigweed (Amaranthus retroflexus), ragweed (common ragweed, Ambrosia elation), soybean (Glycine max), common (oilseed) sunflower (Helianthus annuus), Russian thistle (Salsola kali) and velvetleaf (Abutilon theophrasti) were planted into a blend of loam soil and sand and treated preemergence with test chemicals formulated in a non-phytotoxic solvent mixture which included a surfactant.
(§2) At the same time, plants selected from these crop and weed species and also barley (winter barley, Hordeum vulgare), canarygrass (Phalaris minor), chickweed (common chickweed, Stellaria media) windgrass (Apera spica-venti) and deadnettle (henbit deadnettle, Lamium amplexicaule) were planted in pots containing Redi-Earth® planting medium (Scotts Company, 14111 Scottslawn Road, Marysville, Ohio 43041) comprising spaghnum peat moss, vermiculite, wetting agent and starter nutrients and treated with postemergence applications of test chemicals formulated in the same manner. Plants ranged in height from 2 to 18 cm (1- to 4-leaf stage) for postemergence treatments.
(§3) Treated plants and controls were maintained in a greenhouse for 13 to 15 days, after which time all species were compared to controls and visually evaluated. Plant response ratings, summarized in Table C, are based on a scale of 0 to 100 where 0 is no effect and 100 is complete control. A dash (-) response means no test result.

Barnyardgrass = assay: Test C postemergence: barnyardgrass; assay type: in vivo, Echinochloa crus-galli
Description: as §2, §3

Oilseed Rape [2] = assay: Test C preemergence: oilseed rape; assay type: in vivo; details: scale of 0 to 100, 0 is no effect, 100 is complete control
Description: as §1, §3

Oilseed Rape [3] = assay: Test C preemergence: oilseed rape; assay type: in vivo, Brassica napus; details: 125 g ai/ha, scale 0 to 100, 0 no effect, 100 complete control
Waterhemp [4] = assay: Test C postemergence: waterhemp; assay type: in vivo
Description: as §2, §3

Oilseed Rape [5] = assay: Test C postemergence: oilseed rape; assay type: in vivo, Brassica napus
Description: as §1, §2, §3

Oilseed Rape [6] = assay: Test C postemergence: oilseed rape; assay type: in vivo
Description: as §2, §3

Waterhemp [7] = assay: Test C postemergence: waterhemp; assay type: in vivo, Amaranthus rudis
Description: as §1, §2, §3

Waterhemp [8] = assay: Test C pre-/postemergence: waterhemp; assay type: in vivo
Description: as §1, §2, §3

[9] = 31 g ai/ha, scale 0 to 100 (0 no effect, 100 complete control)
[10] = 62 g ai/ha, scale 0 to 100 (0 no effect, 100 complete control)
[11] = 125 g ai/ha, scale 0 to 100, 0 no effect, 100 complete control
[12] = 250 g ai/ha, scale 0 to 100 (0 no effect, 100 complete control)
[13] = Postemergence, 31 g ai/ha, scale 0 to 100 (0 no effect, 100 complete control)
[14] = Preemergence, 250 g ai/ha, scale 0 to 100, 0 no effect, 100 complete control

SMILES	Plant response rating, Barnyardgrass [1]	Plant response rating, Barnyardgrass (Barnyardgrass; [9])	Plant response rating, Barnyardgrass (Barnyardgrass; [10])	Plant response rating, Barnyardgrass (Barnyardgrass; 250 g ai/ha, scale 0 to 100)	Plant response rating, Oilseed Rape (Oilseed Rape [2]; 62 g ai/ha)	Plant response rating, Oilseed Rape (Oilseed Rape [3])	Plant response rating, Waterhemp (Waterhemp [4]; [10])	Plant response rating, Oilseed Rape (Oilseed Rape [5]; [11])	Plant response rating, Oilseed Rape (Oilseed Rape [5]; [12])	Plant response rating, Oilseed Rape (Oilseed Rape [6]; [10])	Plant response rating, Waterhemp (Waterhemp [7]; [11])	Plant response rating, Waterhemp (Waterhemp [7]; [12])	Plant response rating, Waterhemp (Waterhemp [8]; [13])	Plant response rating, Oilseed Rape (Oilseed Rape [2]; 31 g ai/ha)	Plant response rating, Waterhemp (Waterhemp [4]; [9])	Plant response rating, Waterhemp (Waterhemp [4]; 250 g ai/ha, scale 0 to 100)	Plant response rating, Oilseed Rape (Oilseed Rape [6]; [9])	Plant response rating, Oilseed Rape (Oilseed Rape [6]; 250 g ai/ha, scale 0 to 100)	Plant response rating, Waterhemp (Waterhemp [8]; [14])
CCc1nn(-c2ccc(C(F)(F)F)c(F)c2)nc1Oc1ccnc(C(F)(F)F)c1 [Compound 183]	100	15	35	85	80	100	100	25	50	25	100	100	85						
Cc1nn(-c2ccc(F)c(C(F)(F)F)c2)nc1Cc1ccnc(C(F)(F)F)c1 [Compound 156]	100	20	30	55	60	90	98	95		90	98			10	98	98	80	95	100
CCCc1nn(-c2ccc(C(F)(F)F)cc2)nc1Oc1ccnc(C(F)(F)F)c1 [Compound 170]	100	20	55	95	95	100	98	50	85	50	98	100	85						
CCc1nn(-c2ccc(F)c(F)c2)nc1Oc1ccnc(C(F)(F)F)c1 [Compound 171]	98	10	15	75	50	50	75	30	30	20	75	98	70						
CCc1nn(-c2ccc(C(F)(F)F)cc2)nc1Cc1ccnc(C(F)(F)F)c1 [Compound 155]	100	25	35	75	90	90	98	95		90	98			50	98	98	90	95	100
CCOCc1nn(-c2ccc(F)cc2)nc1Oc1ccnc(C(F)(F)F)c1 [Compound 163]	100				50	80								0					100
CCCc1nn(-c2ccc(F)c(F)c2)nc1Oc1ccnc(C(F)(F)F)c1 [Compound 172]	100	40	45	90	90	98	95	90	95	90	98	98	90						
CCc1nn(-c2ccc(F)cc2)nc1Cc1ccnc(C(F)(F)F)c1 [Compound 154]	100	15	25	40	90	90	98	95		90	98			5	90	98	80	95	100
CCOc1nn(-c2ccc(C(F)(F)F)cc2)nc1Cc1ccnc(C(F)(F)F)c1 [Compound 164, 4-[[5-ethoxy-2-[4-(trifluoromethyl)phenyl]-2H-1,2,3-triazol-4-yl]methyl]-2-(trifluoromethyl)pyridine]	70	5	10	10	5		65	20		5	65				35	75	5	25	
CCCc1nn(-c2ccc(F)cc2F)nc1Oc1ccnc(C(F)(F)F)c1 [Compound 179]	100	40	45	75	98	100	90	90	90	40	95	95	80						
